Test results reported in patent US20220403431A1, “GLYCOMINIMIZED BACTERIAL HOST CELLS” (INBIOSE N.V., priority 2020, published 2022).

Experiments:
[1] = test system: glycominimized (GM) E. coli strain; test: Osmotic stress sensitivity assay, GM strain compared to WT strain; type: cell-based, Escherichia coli K-12 MG1655; details: minimal medium
Experimental: Cells were cultured in Greiner Bio-One (Vilvoorde, Belgium) polystyrene F-bottom 96 well plates using the defined medium described above and inoculated 1% from precultures, which were grown in a carbon limiting 2.2 g/L glucose H2O defined medium variant. For the minimum inhibitory concentration (MIC) determination and osmotic stress sensitivity experiments, antibiotics resp. salts were supplemented to the medium in a 100 mL volumetric flask and subsequently filter sterilized using a […] Corning filter system. Each strain was grown in multiple wells of the 96-well plate as biological replicates. These final 96-well culture plates were then incubated at 30° C. on an orbital shaker at 800 rpm for 72h, or longer
The maximal growth rate (Max) was calculated based on the observed optical densities at 600 nm using the R package grofit.
To test the osmotic stress sensitivity of an E. coli strain, a concentration array of KCl, NaCl and sucrose was applied, and growth of the strain recorded. The growth rate was calculated and plotted in function of the concentration of each solute as well as of the osmotic pressure. The osmotic pressure π is calculated as π=i*C*R*T whereby i is the dimensionless Van't Hoff index, C the concentration of the solute (mol/L), R the ideal gas constant and T the temperature (K). For salts that dissociate in water, the Van't Hoff index is the sum of all ions originating from one molecule.
Since the semi-permeable membrane of the GM strain is severely altered compared to that of the WT strain, the osmotic sensitivity of both strains was compared toward KCl, NaCl and sucrose.

[2] = test system: glycominimized (GM) E. coli strain; test: Growth rate and MIC in minimal medium with increasing antibiotic concentrations, GM strain compared to WT strain; type: cell-based, Escherichia coli K-12 MG1655
Experimental: Cells were cultured in Greiner Bio-One (Vilvoorde, Belgium) polystyrene F-bottom 96 well plates using the defined medium described above and inoculated 1% from precultures, which were grown in a carbon limiting 2.2 g/L glucose H2O defined medium variant. For the minimum inhibitory concentration (MIC) determination and osmotic stress sensitivity experiments, antibiotics resp. salts were supplemented to the medium in a 100 mL volumetric flask and subsequently filter sterilized using a 0,22 m Corning filter system. Each strain was grown in multiple wells of the 96-well plate as biological replicates. These final 96-well culture plates were then incubated at 30° C. on an orbital shaker at 800 rpm for 72h, or longer
Cell density of the cultures was frequently monitored by measuring optical density at 600 nm (Implen Nanophotometer NP80, Westburg, Belgium) or with a Spark 1OM microplate reader (Tecan, Switzerland).
The minimum inhibitory concentration (MIC) was determined as the lowest concentration of an antibiotic where the growth rate was less or equal than 10% of the growth rate when no antibiotic was added.
In this experiment, the growth rate was measured for both the wildtype and the GM strain when grown in media containing increasing antibiotic concentrations.

[3] = at 5 g/L concentrations of the salt solutes

**Q.** For [Cl-].[Na+] [NaCl], which “osmotic sensitivity of the GM strain compared to the WT strain (relative specific growth rate, FIG. 2)” value [1, 3] is on record?
**A.** equally sensitive

**Q.** Which “osmotic sensitivity of the GM strain compared to the WT strain (relative specific growth rate, FIG. 2)” value [1, 3] does the source give for [Cl-].[K+] [KCl] here?
**A.** equally sensitive

**Q.** What does the source list for CC[C@H]1OC(=O)[C@H](C)[C@@H](O[C@H]2C[C@@](C)(OC)[C@@H](O)[C@H](C)O2)[C@H](C)[C@@H](O[C@@H]2O[C@H](C)C[C@H](N(C)C)[C@H]2O)[C@](C)(O)C[C@@H](C)C(=O)[C@H](C)[C@@H](O)[C@]1(C)O [erythromycin]?
**A.** minimum inhibitory concentration (MIC), GM strain vs WT strain ([2]; MIC = lowest concentration where growth rate is less or equal than 10% of growth rate without antibiotic, both strains compared): similar; sensitivity of the GM strain to the antibiotic compared to the WT strain (relative specific growth rate, FIG. 1) ([2]; minimal medium, increasing antibiotic concentrations, GM vs WT strain): similarly sensitive

**Q.** With OC[C@H]1O[C@@](CO)(O[C@H]2O[C@H](CO)[C@@H](O)[C@H](O)[C@H]2O)[C@@H](O)[C@@H]1O [sucrose] as the compound, how does the “osmotic sensitivity of the GM strain compared to the WT strain (relative specific growth rate, FIG. 2)” value ([1]; up till 64 g/L sucrose) read?
**A.** equally sensitive
